Assay results from patent US20250092345A1, “INTER ORGAN PLATFORM FOR MICROPHYSIOLOGICAL SYSTEM ON A CHIP” (THE TRUSTEES OF COLUMBIA UNIVERSITY IN THE CITY OF NEW YORK, priority 2020, published 2025).

Assays:
[1] = tested on: metastatic TE-ES (SK-N-MC); assay: Metastatic engineered ES bone tumor (TE-ES) in isolated culture, linsitinib; assay type: cell-based, human; conditions: 12 μM
Text: (§1) The effects of linsitinib were studied in an experiment performed according to the 3-week treatment cycle used in the clinical trial (3 days of drug administration followed by 4 days without the drug, in 3 cycles), with luminescence signal serving as an indicator of cancer cell viability within the TE-ES.
(§2) Determining the effects of linsitinib on ES cells and osteoblasts within the engineered ES bone tumors across a 3-week clinical drug treatment regimen is shown in FIGS. 33A-33B. […] Supernatants were collected from each individual sample across the duration of the drug treatments and were analyzed for osteoblast function (OCN, OPN) and for cytotoxicity (LDH) (mean±s.e.m., n=3).
(§3) Two weeks following the initiation of osteogenic differentiation, aggregates of ES tumor cells were prepared as described previously, using 0.3×10^6 cells per aggregate. After 1 week of culture, corresponding to the end of bone tissue culture (3 weeks), the primary ES cell aggregates were placed into the engineered bone constructs (3 aggregates per construct, placed apart of each other). Tumor models were established for two different types of primary ES cells: non-metastatic (RD-ES) and metastatic (SK-N-MC). Tissue engineered RD-ES and SK-N-MC tumors were cultured in the RPMI and EMEM media, respectively, supplemented with 10% FBS and 1% penicillin/streptomycin. Bone constructs cultured without tumor cell aggregates (TE-bone) in RPMI and EMEM media were used as controls.
(§4) Specifically, linsitinib was dissolved at a 10 mM concentration in DMSO (Corning) and mixed in with the respective cell medium at a […] concentration unless otherwise noted. Vehicle treatments involved just the addition of DMSO at identical volumes as a control. Tissues were randomly assigned to experimental groups. Medium was changed every day.
(§5) Cell viability was analyzed using a previously established protocol. Cancer cell viability was measured for GFP-Luciferase labelled cancer cells using ONE-Glo luciferase substrate that was prepared according to manufacturer's protocol (Promega). Samples were collected following 3, 7, and 21 days cycles of linsitinib treatment. Where noted, longitudinal cell viability was also assessed using luminescence, though at the cost of signal strength. Briefly, in vivo grade VivoGlo™ Luciferin (Promega) was made at a 200× stock concentration (30 mg/ml) in water, added to sample culture media at a 1:200 dilution, and scanned using a spectrophotometer (Biotek). Some of the IC50 values were determined using cell viability data generated using an MTT assay (RealTime-Glo™ MT Cell Viability Assay, Promega) that were analyzed according to manufacturer's protocol.
Osteocalcin (OCN), osteopontin (OPN), and lactic acid dehydrogenase (LDH) secreted levels were all measured using a similar approach. […] LDH secretion was determined using a Lactate Dehydrogenase Assay Kit (Colorimetric; Abcam).

[2] = tested on: non-metastatic TE-ES (RD-ES); assay: Non-metastatic engineered ES bone tumor (TE-ES) in isolated culture, linsitinib; assay type: cell-based, human
Text: as §1, §2, §3, §4
To assess apoptosis, paraffin embedded tissue sections were first deparaffinized with CitriSolv, rehydrated with graded series of ethanol washes, and then stained with a Click-iT® TUNEL Alexa Fluor® imaging assay (Thermo Fisher Scientific). Following nuclear counterstaining with DAPI (Life Technologies), the TUNEL labelled slides were imaged with an IX81 inverted fluorescent microscope (Olympus) and a Pike F032B camera (ALLIED Vision), using NIS-Elements AR software, and processed using ImageJ (NIH). Four representative images per condition were then analyzed using the previously developed automatic TUNEL cell counter plugin for ImageJ to quantify DAPI^+ cells and TUNEL^+ cells.
as §5
Osteocalcin (OCN), osteopontin (OPN), and lactic acid dehydrogenase (LDH) secreted levels were all measured using a similar approach.

`C[C@]1(O)C[C@@H](c2nc(-c3ccc4ccc(-c5ccccc5)nc4c3)c3c(N)nccn32)C1` [linsitinib] was tested, and the “cytotoxicity (LDH secretion)” value ([1]; 3-week regimen) was “spiked”, the osteocalcin secretion ([1]; 3-week regimen) was “decreased” and the “cancer cell population (luminescence) across the clinical regimen” value ([1]; 21-day treatment regimen) was “decrease in drug efficacy, as the cancer cell population continued to expand”. The “drug response (luminescence)” value ([1]; after 3 days) was “significant drug response”, the osteopontin secretion ([1]; throughout the 21 days) was “decreased” and the “response of cell viability (luminescence) to concentration” value ([2]; 0, 1.2, 12 and 120 μM, 72 hours) was “dose-dependent response”. For the same molecule, the “apoptosis (TUNEL assay)” value ([2]; 12 μM) was “increases in apoptosis”, the “cell viability (luminescence)” value ([2]; 12 μM) was “significant reduction” and the OCN secretion ([2]; 12 μM regimen, 1:1 mixed media) was “increased only slightly”. The “cancer cell population level maintained (luminescence)” value ([2]; 12 μM regimen, 1:1 mixed media) was ~30 % of their starting population, the “cytotoxicity (LDH secretion)” value ([2]; 12 μM, 3-week regimen) was “spiked in both models immediately following drug administration, but significantly more so in the responsive, non-metastatic ES model” and the osteocalcin secretion ([2]; 12 μM, 3-week regimen) was “decreased”. The “cancer cell population (luminescence) across the clinical regimen” value ([2]; 12 μM, 21-day treatment regimen) was “initial decrease in cancer cell population in the non-metastatic model and this population appeared unable to continue expanding”, the “drug response (luminescence)” value ([2]; 12 μM, after 3 days) was “significant drug response” and the osteopontin secretion ([2]; 12 μM, throughout the 21 days) was “significantly increased”. For the same molecule, the “drug response of ES resistant-cell derived tumors (luminescence)” value ([2]; second 21-day 12 μM regimen on tumors from sorted resistant cells) was “significant initial drug response”.
